These results are taken from US5614554A, “Reverse transcriptase inhibitors and antiviral agents” (Nippon Flour Mills Co., Ltd., priority 1992, dated 1997).

The target of data set [1] is reverse transcriptase derived from AMV. Kind of data set: Reverse transcriptase inhibitory effect, AMV enzyme. The settings on record: poly(A).oligo(dT)12-18, 37° C., 10 minutes. It counts as biochemical, AMV (avian myeloblastosis virus). The protocol:
(§1) 20 μl of reaction solution was prepared so as to comprise 50 mM of Tris-hydrochloric acid buffer solution (pH 8.5), 40 mM of KCl, 6 mM of MgCl2, 1 mM of dithiothreitol, 50 μg/ml of poly(A). oligo (dT)12-18, [α^-32 P] deoxythymidine triphosphate, reverse transcriptase and sodium L-tyrosine sulfate.
(§2) After the reaction solution was incubated at 37° C. for 10 minutes, the reaction solution was deposited on DE 81 filter (available from Whatman). The filter was then washed thoroughly with 5% aqueous solution of Na2 HPO4 and subsequently with water, ethanol and diethyl ether. Radiation of the filter was examined by scintillation counter and then the concentration which inhibits 50% of reverse transcriptase activity (IC50) was calculated.
(§3) The reverse transcriptases used in this test were those derived from AMV (avian myeloblastosis virus) and HIV.

A further data set deals with mice leukemia cell L1210. Kind of data set: Influence on the proliferation of mice leukemia cell L1210. It counts as cell-based. The settings on record: 250 μg/ml, cultured for four days, compared with compound-free control. The protocol: To the culture of mice leukemia cell L1210, sodium L-tyrosine sulfate was added at the concentration of 250 μg/ml and then the mixture was cultured for four days.

For another data set, the system named is male mice of ICR. Nature of the data set: Acute toxicity on mice. The format is in vivo. The settings on record: intraperitoneally, 500 mg/kg, male ICR mice at age of 4 weeks. The protocol: Sodium L-tyrosine sulfate was intraperitoneally injected to male mice of ICR at age of 4 weeks at the dose of 500 mg/kg to examine an acute toxicity.
A further data set is described as follows: Solvent solubility. It counts as physicochemical. Conditions: sulfate.
The subject of the next data set is HTLV-IIIB. Nature of the data set: Inhibitory effect on HIV-induced cell damage in infected MT-4 cells (MTT method). The format is cell-based. The settings on record: Human immunodeficiency virus 1, IIIB, MT4, 120 h, read-out: Efficiency. The protocol: (§4) In this test, there were used human T cell strain MT-4 cells (Gann monogr., Vol. 28, pp219-228 (1982)), which was tranformed with HTLV-1 which is an etiogenic virus of adult T cell leukemia, and HTLV-IIIB which is one of HIV strains. This test was performed in accordance with the method of Pauwels et al. (Pauwels et al., J. Virol. Methods, Vol. 20, pp309-21 (1988)).
(§5) Immediately after MT-4 cells were infected with HTLV-IIIB [MOI (multiplicity of infection =the number of inoculated virus/the number of cells): 0.01], sodium L-tyrosine sulfate and the HTLV-IIB-infected MT-4 cells were added to a microtiter plate having 96 wells at a variety of concentrations of sodium L-tyrosine sulfate and the concentration of 2.5×10^4 cells/well, respectively. These samples were cultivated at 37° C. for five days with carbon dioxide incubator. According to MTT method, the number of survival cells was then determined by measuring an absorbance to calculate an efficiency.
For orientation: Tetrazolium dyes change colour on reduction, which living cells bring about.

In data set [2] the target is T1, reverse transcriptase derived from HIV (Human immunodeficiency virus type 1 group M subtype B, UniProt P04585).
T1 construct: the reverse transcriptase derived from HIV
Kind of data set: Reverse transcriptase inhibitory effect, HIV enzyme. It counts as biochemical. The protocol: as §1, §2, §3

The nature of data set [3]: Influence on the proliferation of T cells (non-infected MT-4 cells). It counts as cell-based. The settings on record: human, read-out: Survival rate. The protocol: as §4, §5
As in Test Example 1, there was determined the influence of sodium L-tyrosine sulfate on the proliferation of HTLV-IIIB-non-infected MT-4 cells and the survival rate of the cells was calculated.

“Also recorded” adds a separate entry of the source. Like-named read-outs stand apart in the source and are kept apart here.

Turning to `N[C@@H](Cc1ccc(OS(=O)(=O)[O-])cc1)C(=O)O.[Na+]`, the “IC50 (concentration which inhibits 50% of reverse transcriptase activity)” value in data set [1] was 230 µg/mL. For the same compound, in the data set on mice leukemia cell L1210, the “Inhibitory effect on the proliferation of L1210” value is listed as “hardly any inhibitory effects on the proliferation”. Besides, the Acute toxicity entry in the data set on male mice of ICR is given as “not observed any remarkable toxicity”. For the same compound, the Solvent solubility entry in the data set “Solvent solubility” (product of Synthesis Example 1 before purification) was “soluble in water, methanol and dimethyl sulfoxide; also recorded: insoluble in acetone, ethylacetate, hexane and chloroform”; in “Solvent solubility” (product of Synthesis Example 1 purified by Sephadex LH-20), “soluble in water, methanol and dimethyl sulfoxide; also recorded: insoluble in acetone, ethylacetate, hexane and chloroform”.

In the case of `N[C@@H](Cc1ccc(OS(=O)(=O)[O-])cc1)C(=O)O.[Na+]` [sulfate], in the data set on HTLV-IIIB, the inhibition at 0.32 µg/mL is -5%, the inhibition at 1.6 µg/mL is 61%, the inhibition at 8 µg/mL came out at 116% and the inhibition at 40 µg/mL worked out at 91%. For the same compound, in the data set on HTLV-IIIB, the inhibition at 200 µg/mL stood at 124% and the inhibition at 1000 µg/mL amounted to 106%. The IC50 (usually the concentration that gives 50% inhibition) in data set [2] was 127 µM. The viability at 120 h in data set [3] (0.32 μg/ml) was determined as 98%. Moreover, the viability at 120 h in data set [3] (1.6 μg/ml) is 97%. In data set [3] (8 μg/ml), the viability at 120 h came out at 110%. Also, the viability at 120 h in data set [3] (40 μg/ml) stood at 94%. The viability at 120 h in data set [3] (200 μg/ml) was determined as 120%. Besides, the viability at 120 h in data set [3] (1000 μg/ml) is 112%.
